The source of these data is PMC9791066, “Investigations into the antibacterial effects and potential mechanism of gambogic acid and neogambogic acid” (Frontiers in Microbiology, 2022).

Converted amounts (≈) assume the structure as drawn. Like-named read-outs stand apart in the source and are kept apart here.

For one experiment, the system named is MRSA. The experiment can be described thus: MIC, microtiter broth dilution. It is filed as cell-based, Staphylococcus aureus. The conditions noted are these: LB broth, 18 h. Here is the method: (§1) Antibacterial activities were performed by examining the minimal inhibitory concentrations (MICs), which was determined by a microtiter broth dilution method as previously described ([Cotsonas King and Wu, 2009]), with minor modifications. Briefly, 96-well plates (Corning) were inoculated with 100 μl of LB broth per well containing 7 × 10^5 CFU/mL bacteria, followed by adding 100 μl of LB broth containing two-fold serial dilutions of the test compounds. […] After 18 h of incubation, the MIC was determined to be the lowest concentration without visible bacterial growth. The results were the averages of at least three biological replicates.
Background: Broth dilution looks for growth in wells or tubes with falling amounts of substance.

The subject of the next experiment is Escherichia coli BAS 849. The experiment can be described thus: microbe, parasite or virus in culture. It is filed as cell-based. The conditions noted are these: LB broth, 18 h, strain with deficient outer-membrane structure. Here is the method: as §1
Experiment [1] concerns Escherichia coli BL21 (DE3). The experiment can be described thus: microbe, parasite or virus in culture. It is filed as cell-based. The conditions noted are these: LB broth, 18 h. Here is the method: as §1
The next experiment concerns Escherichia coli DH5α. The experiment can be described thus: microbe, parasite or virus in culture. It is filed as cell-based. Conditions: LB broth, 18 h. Here is the method: as §1
Experiment [2] has as its system Enterococcus faecalis ATCC29212. The experiment can be described thus: MIC, microtiter broth dilution. It is filed as cell-based. Conditions: LB broth, 18 h. Here is the method: as §1
Experiment [3] concerns Escherichia coli ATCC25922. Description: MIC, microtiter broth dilution. It is filed as cell-based. Conditions: LB broth, 18 h. As for the experimental part:
as §1

Experiment [4] deals with Staphylococcus aureus ATCC29213. The experiment can be described thus: MIC, microtiter broth dilution. It is filed as cell-based. Conditions: LB broth, 18 h. As for the experimental part:
as §1

For experiment [5], the system named is Listeria monocytogenes ATCC19117. The experiment can be described thus: MIC, microtiter broth dilution. Conditions: LB broth, 18 h. It is filed as cell-based. As for the experimental part:
as §1

Setting [6] is: Staphylococcus aureus, MRSA, read-out: MIC.
The mark [7] stands for this setting: Escherichia coli, read-out: MIC.
Where [8] appears, read: Enterococcus faecalis, ATCC29212, read-out: MIC.
[9] abbreviates: Staphylococcus aureus, ATCC29213, read-out: MIC.
Setting [10] is: Listeria monocytogenes, ATCC19117, read-out: MIC.

For the compound `CC1(C)S[C@@H]2[C@H](NC(=O)[C@H](N)c3ccccc3)C(=O)N2[C@H]1C(=O)O` [Amp, ampicillin], the MIC is 1 µg/mL (≈ 2.86 µM) with MRSA (setting [6]); 0.5 µg/mL (≈ 1.43 µM) in the experiment with Escherichia coli BAS 849 (Escherichia coli, BAS849, read-out: MIC); 1 µg/mL (≈ 2.86 µM) in experiment [1] (setting [7]); 2 µg/mL (≈ 5.72 µM) in the experiment on Escherichia coli DH5α (setting [7]); 0.5 µg/mL (≈ 1.43 µM) in experiment [2] (setting [8]); 1 µg/mL (≈ 2.86 µM) in experiment [3] (Escherichia coli, ATCC25922, read-out: MIC). Moreover, the MIC in experiment [4] (setting [9]) and in experiment [5] (setting [10]) was 1 µg/mL (≈ 2.86 µM) throughout.

With `CN(C)[C@@H]1C(O)=C(C(N)=O)C(=O)[C@@]2(O)C(O)=C3C(=O)c4c(O)cccc4[C@@](C)(O)[C@H]3C[C@@H]12` [Tet, Tetracycline], the MIC in the experiment with MRSA (setting [6]) stood at 2 µg/mL (≈ 4.5 µM); in experiment [2] (setting [8]) it was 8 µg/mL (≈ 18 µM); in experiment [4] (setting [9]) it was 0.5 µg/mL (≈ 1.13 µM); in experiment [5] (setting [10]), 2 µg/mL (≈ 4.5 µM).

For the compound `COc1cc(O)c2c(O)c3c(c4c2c1[C@]1(C4)C(C)=CCCC1(C)C)[C@H](O)[C@@]1(O)CC(=O)C(C(N)=O)=C(O)[C@@]1(O)C3=O` [VirA, viridicatumtoxins A], the MIC against MRSA is 1 µg/mL (≈ 1.77 µM); with Escherichia coli BAS 849, 8 µg/mL (≈ 14.1 µM); in experiment [1], over 64 µg/mL; in the experiment with Escherichia coli DH5α, over 64 µg/mL; in experiment [2], 2 µg/mL (≈ 3.54 µM); in experiment [3] it was over 64 µg/mL. For the same compound, the MIC is 1 µg/mL (≈ 1.77 µM) in experiment [4] and 2 µg/mL (≈ 3.54 µM) in experiment [5].

As for `COc1cc(O)c2c(O)c3c(c4c2c1C1(C4)C(C)=CCCC1(C)C)C1(O)OC12CC(=O)C(C(N)=O)=C(O)C2(O)C3=O` (stereo not shown) [VirB, viridicatumtoxins B], the MIC in the experiment on MRSA is 1 µg/mL (≈ 1.77 µM); in the experiment on Escherichia coli BAS 849, 8 µg/mL (≈ 14.2 µM); in experiment [1], over 64 µg/mL; against Escherichia coli DH5α, over 64 µg/mL; in experiment [2], 1 µg/mL (≈ 1.77 µM); in experiment [3], over 64 µg/mL. For the same compound, the MIC in experiment [4] and in experiment [5] was 1 µg/mL (≈ 1.77 µM) each time.
